Results published in publication PMC4306947, “Synthesis and Antiproliferative Activity of Thiazolyl-bis-pyrrolo[2,3-b]pyridines and Indolyl-thiazolyl-pyrrolo[2,3-c]pyridines, Nortopsentin Analogues” (Marine Drugs, 2015).

Assays:
K-562 = test: NCI-60 in vitro tumor cell screen, K-562; assay type: cell-based; settings: Homo sapiens, K562; K-562, Leukemia
Procedure: (§1) All the synthesized thiazoles 1a–l, 2a–j, 3a–f and 4a–f were evaluated by the National Cancer Institute (Bethesda MD) for cytotoxicity against the NCI-60 cell line panel using standard protocols. Initially, all derivatives were tested at a single dose (10^−5 M) on the full panel of approximately 60 human tumor cell lines derived from 9 human cancer cell types, that have been grouped in disease sub-panels including leukemia, non-small-cell lung, colon, central nervous system (CNS), melanoma, ovarian, renal, prostate and breast cancers (data not shown). Compounds 1k and 4c were further selected for full evaluation at five concentration levels (10^−4–10^−8 M).
(§2) The antitumor activity of compounds 1k and 4c was given by three parameters for each cell line: GI50 (GI50 is the molar concentration of the compound that inhibits 50% net cell growth), TGI (TGI is the molar concentration of the compound leading to total inhibition of net cell growth), and LC50 (LC50 is the molar concentration of the compound that induces 50% net cell death). The average values of mean graph midpoint (MG_MID) were calculated for each of these parameters.

MOLT-4 = test: NCI-60 in vitro tumor cell screen, MOLT-4; assay type: cell-based; settings: Homo sapiens; MOLT-4, Leukemia
Procedure: as §1, §2

EKVK = test: NCI-60 in vitro tumor cell screen, EKVK; assay type: cell-based; settings: Homo sapiens, Non-Small Cell Lung Cancer
Procedure: as §1, §2

NCI-H322M = test: NCI-60 in vitro tumor cell screen, NCI-H322M; assay type: cell-based; settings: Homo sapiens, Non-Small Cell Lung Cancer
Procedure: as §1, §2

HCC-2998 = test: NCI-60 in vitro tumor cell screen, HCC-2998; assay type: cell-based; settings: Homo sapiens; HCC-2998, Colon Cancer
Procedure: as §1, §2

U251 = test: NCI-60 in vitro tumor cell screen, U251; assay type: cell-based; settings: Homo sapiens, U-251; U251, CNS Cancer
Procedure: as §1, §2

MALME-3M = test: NCI-60 in vitro tumor cell screen, MALME-3M; assay type: cell-based; settings: Homo sapiens, Melanoma
Procedure: as §1, §2

M14 = test: NCI-60 in vitro tumor cell screen, M14; assay type: cell-based; settings: Homo sapiens; M14, Melanoma
Procedure: as §1, §2

MDA-MB-435 = test: NCI-60 in vitro tumor cell screen, MDA-MB-435; assay type: cell-based; settings: Homo sapiens; MDA-MB-435, Melanoma
Procedure: as §1, §2

SK-MEL-2 = test: NCI-60 in vitro tumor cell screen, SK-MEL-2; assay type: cell-based; settings: Homo sapiens; SK-MEL-2, Melanoma
Procedure: as §1, §2

UACC-62 = test: NCI-60 in vitro tumor cell screen, UACC-62; assay type: cell-based; settings: Homo sapiens; UACC-62, Melanoma
Procedure: as §1, §2

IGROV1 = test: NCI-60 in vitro tumor cell screen, IGROV1; assay type: cell-based; settings: Homo sapiens, IGROV-1; IGROV1, Ovarian Cancer
Procedure: as §1, §2

786-0 = test: NCI-60 in vitro tumor cell screen, 786-0; assay type: cell-based; settings: Homo sapiens; 786-0, Renal Cancer
Procedure: as §1, §2

CAKI-1 = test: NCI-60 in vitro tumor cell screen, CAKI-1; assay type: cell-based; settings: Homo sapiens; CAKI-1, Renal Cancer
Procedure: as §1, §2

DU-145 = test: NCI-60 in vitro tumor cell screen, DU-145; assay type: cell-based; settings: Homo sapiens; DU-145, Prostate Cancer
Procedure: as §1, §2

MCF7 = test: NCI-60 in vitro tumor cell screen, MCF7; assay type: cell-based; settings: Homo sapiens; MCF7, Breast Cancer
Procedure: as §1, §2

T-47D = test: NCI-60 in vitro tumor cell screen, T-47D; assay type: cell-based; settings: Homo sapiens, T47D, Breast Cancer
Procedure: as §1, §2

[1] = tested on: intestinal normal-like differentiated Caco-2 cells; test: MTT viability assay, differentiated Caco-2 cells, 24 h; assay type: cell-based, human; settings: range 5 to 100 μM
Procedure: Nortopsentin analogues, prepared as described above, were dissolved in dimethyl sulfoxide (DMSO) and then diluted in culture medium to have a DMSO concentration not exceeding 0.1%. HCT-116 and Caco-2 cell lines were purchased from American Type Culture Collection, Rockville, MD, USA and DMEM supplemented with […], […] bovine serum (FBS), penicillin (100 U/mL), streptomycin (100 μg/mL) and gentamicin (5 μg/mL). Cells were maintained in log phase by seeding twice a week at a density of 3 × 10^8 cells/L in humidified 5% CO2 atmosphere, at 37 °C. In all experiments, HCT-116 cells were made quiescent through overnight incubation before treatment with tested compounds or vehicle alone (control cells), while Caco-2 cells were treated 15 days after confluence, at which time the cells are differentiated in normal intestinal-like cells. […]
Cytotoxic activity of the nortopsentin derivatives 1k and 4c was determined by the colorimetric assay based on the reduction of […] (MTT) to purple formazan by mitochondrial dehydrogenases. […] Cells were incubated 2 h at 37 °C, then medium was discarded by centrifugation, formazan blue formed in the cells dissolved in DMSO, and absorbance measured at 570 nm in a microplate reader (Bio-RAD, Hercules, CA, USA). […] GI50 was calculated by the curve of percent viability vs. concentration. […]

SR = test: NCI-60 in vitro tumor cell screen, SR; assay type: cell-based; settings: Homo sapiens, Leukemia
Procedure: as §1, §2

COLO-205 = test: NCI-60 in vitro tumor cell screen, COLO-205; assay type: cell-based; settings: Homo sapiens; COLO-205, Colon Cancer
Procedure: as §1, §2

SK-MEL-28 = test: NCI-60 in vitro tumor cell screen, SK-MEL-28; assay type: cell-based; settings: Homo sapiens; SK-MEL-28, Melanoma
Procedure: as §1, §2

UACC-257 = test: NCI-60 in vitro tumor cell screen, UACC-257; assay type: cell-based; settings: Homo sapiens; UACC-257, Melanoma
Procedure: as §1, §2

SN12C = test: NCI-60 in vitro tumor cell screen, SN12C; assay type: cell-based; settings: Homo sapiens, Renal Cancer
Procedure: as §1, §2

UO-31 = test: NCI-60 in vitro tumor cell screen, UO-31; assay type: cell-based; settings: Homo sapiens; UO-31, Renal Cancer
Procedure: as §1, §2

HCT-116 cells = test: Acidic vesicular organelles by acridine orange staining (FACS); assay type: cell-based, human; settings: 24 h
Procedure: AO is a fluorescent molecule used either to identify apoptotic cell death or autophagy. It can interact with DNA emitting green fluorescence or accumulate in acidic organelles where it is protonated forming aggregates that emit bright red fluorescence. Briefly, cells were stained with a AO solution (5 μg/mL) for 15 min. Then they were washed, re-suspended in PBS and subjected to FACS analysis. The green (510–530 nm, FL-1) and red (650 nm, FL-3) fluorescence of AO with blue (488 nm) excitation was determined over 10,000 events.

Cn1cc(-c2csc(-c3c[nH]c4ncccc34)n2)c2cc(Br)cnc21 [Compound 1k, 5-Bromo-1-methyl-3-[2-(1H-pyrrolo[2,3-b]pyridin-3-yl)-1,3-thiazol-4-yl]-1H-pyrrolo[2,3-b]pyridine]
GI50 (K-562): 8760 nM | GI50 (MOLT-4): > 100000 nM | GI50 (EKVK): 1270 nM | GI50 (NCI-H322M): > 100000 nM | GI50 (HCC-2998): > 100000 nM | GI50 (U251): 2700 nM | GI50 (MALME-3M): 3010 nM | GI50 (M14): 4060 nM | GI50 (MDA-MB-435): 3170 nM | GI50 (SK-MEL-2): 19800 nM | GI50 (UACC-62): 3470 nM | GI50 (IGROV1): 2210 nM | GI50 (786-0): 9650 nM | GI50 (CAKI-1): 1560 nM | GI50 (DU-145): 3510 nM | GI50 (MCF7): 6770 nM | GI50 (T-47D): 1800 nM | effect on cell viability [1]: did not affect the differentiated Caco-2 cell viability

Clc1nccc2c(-c3csc(-c4c[nH]c5ccc(Br)cc45)n3)c[nH]c12 [Compound 4c, 3-[2-(5-Bromo-1H-indol-3-yl)-1,3-thiazol-4-yl]-7-chloro-1H-pyrrolo[2,3-c]pyridine]
GI50 (K-562): 2730 nM | GI50 (MOLT-4): 3020 nM | GI50 (SR): 1270 nM | GI50 (EKVK): 3110 nM | GI50 (NCI-H322M): 3540 nM | GI50 (COLO-205): 1800 nM | GI50 (HCC-2998): 2220 nM | GI50 (U251): 2050 nM | GI50 (M14): 2220 nM | GI50 (MDA-MB-435): 3430 nM | GI50 (SK-MEL-2): 4090 nM | GI50 (SK-MEL-28): 1850 nM | GI50 (UACC-257): 2680 nM | GI50 (UACC-62): 2190 nM | GI50 (IGROV1): 2510 nM | GI50 (786-0): 1370 nM | GI50 (CAKI-1): 1960 nM | GI50 (SN12C): 3350 nM | GI50 (UO-31): 930 nM | GI50 (DU-145): 1760 nM | GI50 (MCF7): 2200 nM | GI50 (T-47D): 3120 nM | effect on cell viability [1]: did not affect the differentiated Caco-2 cell viability | increase of the bright red to green fluorescence intensity ratio of acridine orange (HCT-116 cells; concentration GI30, vs control): 10 fold | percent of cells with AVO with respect to control (HCT-116 cells; highest drug concentration): did not significantly modify
